Data from ChEMBL document CHEMBL4052601, “Glycybridins A-K, Bioactive Phenolic Compounds from Glycyrrhiza glabra” (J Nat Prod, 2017).

Key:
[1] = test system: RAW264.7; test: Antiinflammatory activity against mouse RAW264.7 cells assessed as inhibition of LPS-induced nitric oxide production at 10 uM after 24 hrs by Griess assay relative to control; type: functional; conditions: RAW264.7, 24 h
[2] = test system: Homo sapiens; test: Inhibition of LPS-induced NF-kappaB (unknown origin) transactivation expressed in human SW480 cells at 10 uM administered 1 hr after LPS stimulation measured after 6 hrs by luciferase reporter gene assay relative to control; type: cell-based
[3] = test system: A549; test: Induction of apoptosis in human A549 cells assessed as early apoptotic cells at 2.5 uM after 8 hrs by Annexin V-FITC/propidium iodide staining-based flow cytometric analysis (reference value: 1.64%); type: functional
[4] = test system: HepG2; test: Antiproliferative activity against human HepG2 cells at 10 uM after 24 hrs by MTS assay relative to control; type: functional; conditions: HepG2, 24 h
[5] = test system: A549; test: Antiproliferative activity against human A549 cells at 10 uM after 24 hrs by MTS assay relative to control; type: functional; conditions: A549, 24 h
[6] = test system: MCF7; test: Antiproliferative activity against human MCF7 cells at 10 uM after 24 hrs by MTS assay relative to control; type: functional; conditions: MCF7, 24 h
[7] = test system: SW480; test: Antiproliferative activity against human SW480 cells at 10 uM after 24 hrs by MTS assay relative to control; type: functional; conditions: SW480, 24 h
[8] = test system: HepG2; test: Antiproliferative activity against human HepG2 cells after 24 hrs by MTS assay; type: functional, cell-based; conditions: HepG2, 24 h
[9] = test system: A549; test: Antiproliferative activity against human A549 cells after 24 hrs by MTS assay; type: functional, cell-based
[10] = test system: MCF7; test: Antiproliferative activity against human MCF7 cells after 24 hrs by MTS assay; type: functional, cell-based; conditions: MCF7, 24 h
[11] = test system: SW480; test: Antiproliferative activity against human SW480 cells after 24 hrs by MTS assay; type: functional, cell-based; conditions: SW480, 24 h
[12] = test system: A549; test: Induction of apoptosis in human A549 cells assessed as late apoptotic cells at 2.5 uM after 8 hrs by Annexin V-FITC/propidium iodide staining-based flow cytometric analysis (reference value: 12.02%); type: functional
[13] = test system: A549; test: Induction of apoptosis in human A549 cells assessed as early apoptotic cells at 5 uM after 8 hrs by Annexin V-FITC/propidium iodide staining-based flow cytometric analysis (reference value: 1.64%); type: functional
[14] = test system: A549; test: Induction of apoptosis in human A549 cells assessed as late apoptotic cells at 5 uM after 8 hrs by Annexin V-FITC/propidium iodide staining-based flow cytometric analysis (reference value: 12.02%); type: functional
[15] = test system: A549; test: Induction of apoptosis in human A549 cells assessed as early apoptotic cells at 10 uM after 8 hrs by Annexin V-FITC/propidium iodide staining-based flow cytometric analysis (reference value: 1.64%); type: functional
[16] = test system: A549; test: Induction of apoptosis in human A549 cells assessed as late apoptotic cells at 10 uM after 8 hrs by Annexin V-FITC/propidium iodide staining-based flow cytometric analysis (reference value: 12.02%); type: functional
[17] = test system: A549; test: Induction of apoptosis in human A549 cells assessed as early apoptotic cells at 20 uM after 8 hrs by Annexin V-FITC/propidium iodide staining-based flow cytometric analysis (reference value: 1.64%); type: functional
[18] = test system: A549; test: Induction of apoptosis in human A549 cells assessed as late apoptotic cells at 20 uM after 8 hrs by Annexin V-FITC/propidium iodide staining-based flow cytometric analysis (reference value: 12.02%); type: functional
[19] = test system: A549; test: Induction of apoptosis in human A549 cells after 8 hrs by Annexin V-FITC/propidium iodide staining-based flow cytometric analysis; type: functional, cell-based
[20] = test system: A549; test: Antitumor activity against human A549 cells xenografted in BALB/c nude mouse assessed as reduction in tumor mass at 10 mg/kg, ip administered as daily dose for 16 days relative to control; type: functional; conditions: 384 h
[21] = test system: A549; test: Antitumor activity against human A549 cells xenografted in BALB/c nude mouse assessed as reduction in tumor volume at 10 mg/kg, ip administered as daily dose for 16 days relative to control; type: functional; conditions: 384 h
[22] = test system: Mus musculus; test: Toxicity in BALB/c nude mouse xenografted with human A549 cells at 10 mg/kg, ip administered as daily dose for 16 days relative to control; type: organism-based; conditions: in vivo, 384 h
[23] = test system: Mus musculus; test: Toxicity in BALB/c nude mouse xenografted with human A549 cells assessed as change in body weight at 10 mg/kg, ip administered as daily dose for 16 days relative to control; type: organism-based; conditions: in vivo, 384 h
[24] = target: T1, Tyrosinase (Homo sapiens) (UniProt P14679); conditions: at 10 µM;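 note: tyrosinase of unspecified origin acting on L-tyrosine, compound preincubated with enzyme for 15 min before adding substrate, inhibition expressed versus control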
T1 sequence (whole entry): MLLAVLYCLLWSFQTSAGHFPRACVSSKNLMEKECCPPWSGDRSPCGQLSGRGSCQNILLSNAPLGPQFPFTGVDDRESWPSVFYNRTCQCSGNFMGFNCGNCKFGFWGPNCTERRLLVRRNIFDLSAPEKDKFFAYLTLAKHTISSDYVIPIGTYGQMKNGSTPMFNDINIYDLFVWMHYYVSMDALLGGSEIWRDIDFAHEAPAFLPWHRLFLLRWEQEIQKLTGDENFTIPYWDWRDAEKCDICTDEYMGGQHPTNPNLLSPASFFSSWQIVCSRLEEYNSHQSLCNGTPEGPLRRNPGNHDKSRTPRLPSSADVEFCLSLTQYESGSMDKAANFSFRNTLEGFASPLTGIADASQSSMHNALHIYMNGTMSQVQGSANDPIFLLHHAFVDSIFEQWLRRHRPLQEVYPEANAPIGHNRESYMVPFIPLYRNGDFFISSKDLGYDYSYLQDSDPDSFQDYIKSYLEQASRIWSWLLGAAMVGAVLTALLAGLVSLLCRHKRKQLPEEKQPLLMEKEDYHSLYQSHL
Description: Inhibition of tyrosinase (unknown origin) using L-tyrosine as substrate at 10 uM preincubated for 15 mins followed by substrate addition relative to control

[25] = target: T2, Tyrosine-protein phosphatase non-receptor type 1 (Homo sapiens) (UniProt P18031); conditions: at 10 µM;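 note: recombinant enzyme assay with pNPP substrate, inhibition read after 30 min versus untreated control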
T2 sequence (whole entry): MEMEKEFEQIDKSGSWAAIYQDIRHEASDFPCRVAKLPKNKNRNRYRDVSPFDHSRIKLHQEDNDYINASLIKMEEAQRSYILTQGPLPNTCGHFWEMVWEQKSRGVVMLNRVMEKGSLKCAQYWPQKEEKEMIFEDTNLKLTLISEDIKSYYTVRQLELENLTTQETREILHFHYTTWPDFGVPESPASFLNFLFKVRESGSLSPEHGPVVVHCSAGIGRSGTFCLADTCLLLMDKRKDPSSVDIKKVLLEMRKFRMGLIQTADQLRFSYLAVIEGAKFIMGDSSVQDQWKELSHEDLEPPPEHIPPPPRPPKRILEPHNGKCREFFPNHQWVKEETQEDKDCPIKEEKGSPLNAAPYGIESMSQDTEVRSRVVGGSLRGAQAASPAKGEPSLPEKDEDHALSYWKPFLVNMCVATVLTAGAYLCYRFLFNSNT
Description: Inhibition of recombinant human PTP1B using pNPP as substrate at 10 uM after 30 mins relative to control

IC50 [8]: 4.6 to 6.6 µM
IC50 ([9]; A549, 24 h): 4.6 µM
IC50 [10]: 4.6 to 6.6 µM
IC50 [11]: 4.6 to 6.6 µM
inhibition [24]: 3.8%
inhibition [25]: 80.4%
Compound: CC(C)=CCc1cc2c(cc1O)OCC(c1ccc(O)c3c1OC(C)(C)C=C3)=C2
inhibition at 10 µM [1]: 36%
inhibition [2]: 41.6%
Activity [3]: 3.03%
inhibition at 10 µM [4]: 93.6%
inhibition at 10 µM [5]: 87.7%
inhibition at 10 µM [6]: 90.7%
inhibition at 10 µM [7]: 94.6%
Activity [9]: Dose-dependent effect
Activity [12]: 14.08%
Activity [13]: 2.42%
Activity [14]: 17.07%
Activity [15]: 16.04%
Activity [16]: 32.67%
Activity [17]: 22.81%
Activity [18]: 72.21%
Activity [19]: Dose-dependent effect
inhibition in vivo at 10 mg/kg [20]: 39.7%
inhibition in vivo at 10 mg/kg [21]: 38.9%
Activity [22]: Non-Toxic
Activity [23]: Non-Toxic
